In patent US11090355B2, “Compositions and methods for the treatment of neurodamage” (BIOINCEPT, LLC, priority 2015, dated 2021):
Marks after values point to notes of the source that are not given here.

How the values were obtained:
[1] = molecular target: PDI (Homo sapiens, UniProt P07237); assay: binding to PDI, sPIF compared to scrambled PIF
Description: (FIG. 2). […] (FIG. 3). […] (FIG. 4). […] Thus dependent on the target Kv1.3 or IDE the mutated PIF-1 can have a target-specific effect which can also translate to diverse biological activity.

[2] = system: EAE; assay: PLP139-151 induced EAE, episodic treatment, paralysis scores; conditions: for MCE (mean clinical score at end) / MCS (mean clinical score) / PP (mean peak paralysis score): short term

Chain of PDI (P07237 18-508, species assumed): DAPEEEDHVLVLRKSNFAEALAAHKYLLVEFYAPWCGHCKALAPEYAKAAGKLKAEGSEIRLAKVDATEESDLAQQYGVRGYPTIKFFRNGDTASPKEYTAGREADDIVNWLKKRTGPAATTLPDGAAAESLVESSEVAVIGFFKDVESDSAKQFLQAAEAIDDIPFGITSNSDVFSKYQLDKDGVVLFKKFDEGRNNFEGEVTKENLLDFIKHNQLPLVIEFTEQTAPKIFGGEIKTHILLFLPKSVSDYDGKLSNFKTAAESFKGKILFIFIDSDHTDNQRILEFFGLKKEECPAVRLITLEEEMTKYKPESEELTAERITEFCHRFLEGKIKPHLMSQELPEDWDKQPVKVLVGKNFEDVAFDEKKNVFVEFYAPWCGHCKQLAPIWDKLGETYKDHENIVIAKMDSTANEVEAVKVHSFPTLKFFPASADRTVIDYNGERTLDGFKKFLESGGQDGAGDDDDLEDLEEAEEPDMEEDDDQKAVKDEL

| Substance | interaction with PDI target [1] | total recovery from paraplegia (stage 4/5) ([2]; episodic treatment) [%] | mice disease free at the end of the study ([2]; long-term, day 50) | mice that died ([2]; long-term, day 50) | mice that died ([2]; medium term) | paralysis score ([2]; medium term) | mice with paralysis reversed / disease free ([2]; medium term, day 41) | mice free of paralysis at the end of the first remission ([2]; short term study) | MCE (mean clinical score at end) ([2]; Experiment 1) | MCS (mean clinical score) ([2]; Experiment 1) | PP (mean peak paralysis score) ([2]; Experiment 1) | MCE (mean clinical score at end) ([2]; Experiment 2) | MCS (mean clinical score) ([2]; Experiment 2) | PP (mean peak paralysis score) ([2]; Experiment 2) |
| --- | --- | --- | --- | --- | --- | --- | --- | --- | --- | --- | --- | --- | --- | --- |
| GRVDPSNKSMPKDIA (scrPIF-1 (15)) [scrambled PIF] | greatly reduced | – | – | – | – | – | – | – | – | – | – | – | – | – |
| Glatiramer acetate [GA] | – | 12.5 | 1/9 | three | one | increased | 1/7 | none | 1.3 +/− 0.4 | 1.58 +/− 0.15 | 2.4 +/− 0.4 | 0.8 +/− 0.2* | 1.4 +/− 0.27 | 2.5 +/− 0.4 |
